# Laboratory results published in ChEMBL document CHEMBL3232841, “New aminobenzenesulfonamide-thiourea conjugates: synthesis and carbonic anhydrase inhibition and docking studies” (Eur J Med Chem, 2014).
# Biological target: Carbonic anhydrase 2 (Bos taurus, UniProt P00921)
# Test: Inhibition of bovine erythrocyte carbonic anhydrase 2 using p-nitrophenyl acetate as substrate preincubated for 10 mins before substrate addition measured after 30 mins by spectrophotometric analysis
# Carbonic anhydrase 2, sequence (P00921 whole entry): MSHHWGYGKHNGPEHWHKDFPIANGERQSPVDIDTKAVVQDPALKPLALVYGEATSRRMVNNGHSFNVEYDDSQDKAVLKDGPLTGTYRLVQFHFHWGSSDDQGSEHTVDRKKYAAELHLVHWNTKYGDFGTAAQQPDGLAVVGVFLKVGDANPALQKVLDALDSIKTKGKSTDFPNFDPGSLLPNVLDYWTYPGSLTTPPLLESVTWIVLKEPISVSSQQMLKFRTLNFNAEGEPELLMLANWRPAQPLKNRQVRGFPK
row,Structure (SMILES),IC50 [µM]
1,NS(=O)(=O)c1cccc(NC(=S)NC(=O)c2cccc([N+](=O)[O-])c2)c1,0.49
2,NS(=O)(=O)c1cccc(NC(=S)NC(=O)c2ccccc2Cl)c1,13.5
3,NS(=O)(=O)c1cccc(NC(=S)NC(=O)c2ccc(Cl)cc2Cl)c1,17.1
4,NS(=O)(=O)c1cccc(NC(=S)NC(=O)c2cc([N+](=O)[O-])cc([N+](=O)[O-])c2)c1,14.2
5,NS(=O)(=O)c1cccc(NC(=S)NC(=O)c2cc3ccccc3oc2=O)c1,13.4
6,NS(=O)(=O)c1ccc(NC(=S)NC(=O)c2cc3ccccc3oc2=O)cc1,11.3

# Continued by falling IC50, values first:
row,IC50 [µM],Structure (SMILES)
1,9.76,NS(=O)(=O)c1cccc(NC(=S)NC(=O)c2ccco2)c1
2,5.64,NS(=O)(=O)c1cccc(NC(=S)NC(=O)c2ccc(Cl)cc2)c1
3,5.58,NS(=O)(=O)c1cccc(NC(=S)NC(=O)C23CC4CC(CC(C4)C2)C3)c1
4,1.28,CC(C)(C)C(=O)NC(=S)Nc1cccc(S(N)(=O)=O)c1
5,0.22,NS(=O)(=O)c1cccc(NC(=S)NC(=O)c2cccc(Cl)c2)c1
6,0.052,NS(=O)(=O)c1cccc(NC(=S)NC(=O)c2cccs2)c1
7,0.011,NS(=O)(=O)c1ccc(NC(=S)NC(=O)c2cccs2)cc1
